Results reported in ChEMBL document CHEMBL1201862, “PubChem BioAssay data set” (2004).
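Grown in 96-well plates, cells were treated for 48 hours with each compound at five concentrations. Insufficient inhibition: endpoint recorded as highest concentration tested. GI50: concentration for 50% inhibition of growth.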 The source made the active and inactive calls. No stated cut-off is given here; in the data, active = GI50 up to about 1.1 µM and inactive = higher.

Legend:
Experiment in all cases: NCI tumour cell line growth inhibition, 48 h
SW-620 = tested on: SW-620
SK-MEL-5 = tested on: SK-MEL-5
NCI-H460 = tested on: NCI-H460
U-251 = tested on: U-251
COLO 205 = tested on: COLO 205
MOLT-4 = tested on: MOLT-4
CAKI-1 = tested on: CAKI-1
HL-60 = tested on: HL-60
SR = tested on: SR
LOX IMVI = tested on: LOX IMVI
TK-10 = tested on: TK-10
DMS-114 = tested on: DMS-114
DMS-273 = tested on: DMS-273
SN12C = tested on: SN12C
EKVX = tested on: EKVX
CCRF-CEM = tested on: CCRF-CEM
M14 = tested on: M14
M19-MEL = tested on: M19-MEL
HCT-116 = tested on: HCT-116
IGROV-1 = tested on: IGROV-1
SF-268 = tested on: SF-268
SK-OV-3 = tested on: SK-OV-3
UACC-62 = tested on: UACC-62
K562 = tested on: K562
OVCAR-4 = tested on: OVCAR-4
KM12 = tested on: KM12
KM-20L2 = tested on: KM-20L2
A549 = tested on: A549
SK-MEL-2 = tested on: SK-MEL-2
786-0 = tested on: 786-0
SF-295 = tested on: SF-295
OVCAR-5 = tested on: OVCAR-5
OVCAR-8 = tested on: OVCAR-8
Malme-3M = tested on: Malme-3M
SNB-19 = tested on: SNB-19
HOP-62 = tested on: HOP-62
NCI-H522 = tested on: NCI-H522
NCI-H23 = tested on: NCI-H23
HT-29 = tested on: HT-29
SNB-78 = tested on: SNB-78
LXFL 529 = tested on: LXFL 529
RXF 631 = tested on: RXF 631
OVCAR-3 = tested on: OVCAR-3
HCT-15 = tested on: HCT-15
DLD-1 = tested on: DLD-1
ACHN = tested on: ACHN
SF-539 = tested on: SF-539
UO-31 = tested on: UO-31
NCI-H226 = tested on: NCI-H226
RPMI-8226 = tested on: RPMI-8226
UACC-257 = tested on: UACC-257
HCC 2998 = tested on: HCC 2998
HOP-92 = tested on: HOP-92
SNB-75 = tested on: SNB-75
RXF 393 = tested on: RXF 393
A498 = tested on: A498
XF498 = tested on: XF498
SK-MEL-28 = tested on: SK-MEL-28

**Q.** Which GI50 (SW-620) does the source give for `N#CC1([N+](=O)[O-])C=C1c1ccccc1` (stereo not given) here?
**A.** 19.9 µM (inactive)

**Q.** And the GI50 (SK-MEL-5)?
**A.** 57.3 µM (inactive)

**Q.** What about the GI50 (NCI-H460) of the same molecule?
**A.** 51.2 µM (inactive)

**Q.** And the GI50 (U-251)?
**A.** > 100 µM (inactive)

**Q.** What about the GI50 (COLO 205) of the same molecule?
**A.** > 100 µM (inactive)

**Q.** And the GI50 (MOLT-4)?
**A.** 22.7 µM (inactive)

**Q.** What about the GI50 (CAKI-1) of the same molecule?
**A.** 82.4 µM (inactive)

**Q.** And the GI50 (HL-60)?
**A.** 23.3 µM (inactive)

**Q.** What about the GI50 (SR) of the same molecule?
**A.** 25.2 µM (inactive)

**Q.** What about the GI50 (LOX IMVI) of the same molecule?
**A.** 28.6 µM (inactive)

**Q.** What about the GI50 (TK-10) of the same molecule?
**A.** > 100 µM (inactive)

**Q.** And the GI50 (DMS-114)?
**A.** 48.6 µM (inactive)

**Q.** And the GI50 (DMS-273)?
**A.** > 100 µM (inactive)

**Q.** What about the GI50 (SN12C) of the same molecule?
**A.** > 100 µM (inactive)

**Q.** What about the GI50 (EKVX) of the same molecule?
**A.** > 100 µM (inactive)

**Q.** What about the GI50 (CCRF-CEM) of the same molecule?
**A.** 21.1 µM (inactive)

**Q.** And the GI50 (M14)?
**A.** 42.6 µM (inactive)

**Q.** What about the GI50 (M19-MEL) of the same molecule?
**A.** 56.1 µM (inactive)

**Q.** What about the GI50 (HCT-116) of the same molecule?
**A.** 32.4 µM (inactive)

**Q.** What about the GI50 (IGROV-1) of the same molecule?
**A.** > 100 µM (inactive)

**Q.** What about the GI50 (SF-268) of the same molecule?
**A.** 53.7 µM (inactive)

**Q.** And the GI50 (SK-OV-3)?
**A.** > 100 µM (inactive)

**Q.** What about the GI50 (UACC-62) of the same molecule?
**A.** 20.9 µM (inactive)

**Q.** And the GI50 (K562)?
**A.** 23.2 µM (inactive)

**Q.** What about the GI50 (OVCAR-4) of the same molecule?
**A.** > 100 µM (inactive)

**Q.** And the GI50 (KM12)?
**A.** > 100 µM (inactive)

**Q.** And the GI50 (KM-20L2)?
**A.** > 100 µM (inactive)

**Q.** What about the GI50 (A549) of the same molecule?
**A.** > 100 µM (inactive)

**Q.** What about the GI50 (SK-MEL-2) of the same molecule?
**A.** > 100 µM (inactive)

**Q.** And the GI50 (786-0)?
**A.** 28.8 µM (inactive)

**Q.** And the GI50 (SF-295)?
**A.** > 100 µM (inactive)

**Q.** What about the GI50 (OVCAR-5) of the same molecule?
**A.** > 100 µM (inactive)

**Q.** What about the GI50 (OVCAR-8) of the same molecule?
**A.** > 100 µM (inactive)

**Q.** What about the GI50 (Malme-3M) of the same molecule?
**A.** 63 µM (inactive)

**Q.** What about the GI50 (SNB-19) of the same molecule?
**A.** > 100 µM (inactive)

**Q.** And the GI50 (HOP-62)?
**A.** > 100 µM (inactive)

**Q.** What about the GI50 (NCI-H522) of the same molecule?
**A.** 23.4 µM (inactive)

**Q.** And the GI50 (NCI-H23)?
**A.** > 100 µM (inactive)

**Q.** And the GI50 (HT-29)?
**A.** 35.9 µM (inactive)

**Q.** And the GI50 (SNB-78)?
**A.** 81.5 µM (inactive)

**Q.** And the GI50 (LXFL 529)?
**A.** 32.1 µM (inactive)

**Q.** And the GI50 (RXF 631)?
**A.** > 100 µM (inactive)

**Q.** And the GI50 (OVCAR-3)?
**A.** > 100 µM (inactive)

**Q.** What about the GI50 (HCT-15) of the same molecule?
**A.** 36.7 µM

**Q.** And the GI50 (DLD-1)?
**A.** 8.81 µM (inactive)

**Q.** What about the GI50 (ACHN) of the same molecule?
**A.** 38.6 µM (inactive)

**Q.** What about the GI50 (SF-539) of the same molecule?
**A.** > 100 µM (inactive)

**Q.** And the GI50 (UO-31)?
**A.** > 100 µM (inactive)

**Q.** And the GI50 (NCI-H226)?
**A.** 95.3 µM (inactive)

**Q.** What about the GI50 (RPMI-8226) of the same molecule?
**A.** 19.5 µM (inactive)

**Q.** And the GI50 (UACC-257)?
**A.** 78 µM (inactive)

**Q.** `COc1ccc(COCC(Cn2ccnc2)OCc2ccc(C(=O)O)cc2)cc1` (stereo not given) was tested. Which GI50 (HCC 2998) did it give?
**A.** > 100 µM (inactive)

**Q.** What about the GI50 (HOP-92) of the same molecule?
**A.** > 100 µM (inactive)

**Q.** And the GI50 (SW-620)?
**A.** > 100 µM (inactive)

**Q.** And the GI50 (SNB-75)?
**A.** 59.6 µM (inactive)

**Q.** What about the GI50 (SK-MEL-5) of the same molecule?
**A.** > 100 µM (inactive)

**Q.** What about the GI50 (NCI-H460) of the same molecule?
**A.** > 100 µM (inactive)

**Q.** What about the GI50 (RXF 393) of the same molecule?
**A.** > 100 µM (inactive)

**Q.** What about the GI50 (U-251) of the same molecule?
**A.** > 100 µM (inactive)

**Q.** What about the GI50 (COLO 205) of the same molecule?
**A.** > 100 µM (inactive)

**Q.** And the GI50 (MOLT-4)?
**A.** > 100 µM (inactive)

**Q.** And the GI50 (CAKI-1)?
**A.** > 100 µM (inactive)

**Q.** What about the GI50 (HL-60) of the same molecule?
**A.** > 100 µM (inactive)

**Q.** And the GI50 (LOX IMVI)?
**A.** > 100 µM (inactive)

**Q.** And the GI50 (TK-10)?
**A.** > 100 µM (inactive)

**Q.** And the GI50 (DMS-114)?
**A.** > 100 µM (inactive)

**Q.** And the GI50 (SN12C)?
**A.** > 100 µM (inactive)

**Q.** What about the GI50 (EKVX) of the same molecule?
**A.** > 100 µM (inactive)

**Q.** What about the GI50 (CCRF-CEM) of the same molecule?
**A.** > 100 µM (inactive)

**Q.** And the GI50 (M14)?
**A.** > 100 µM (inactive)

**Q.** And the GI50 (M19-MEL)?
**A.** > 100 µM (inactive)

**Q.** What about the GI50 (HCT-116) of the same molecule?
**A.** > 100 µM (inactive)

**Q.** What about the GI50 (IGROV-1) of the same molecule?
**A.** > 100 µM (inactive)

**Q.** What about the GI50 (SF-268) of the same molecule?
**A.** > 100 µM (inactive)

**Q.** And the GI50 (SK-OV-3)?
**A.** > 100 µM (inactive)

**Q.** And the GI50 (UACC-62)?
**A.** > 100 µM (inactive)

**Q.** What about the GI50 (K562) of the same molecule?
**A.** > 100 µM (inactive)

**Q.** What about the GI50 (OVCAR-4) of the same molecule?
**A.** > 100 µM (inactive)

**Q.** And the GI50 (KM12)?
**A.** > 100 µM (inactive)

**Q.** What about the GI50 (KM-20L2) of the same molecule?
**A.** > 100 µM (inactive)

**Q.** And the GI50 (A549)?
**A.** > 100 µM (inactive)

**Q.** What about the GI50 (SK-MEL-2) of the same molecule?
**A.** > 100 µM (inactive)

**Q.** What about the GI50 (786-0) of the same molecule?
**A.** > 100 µM (inactive)

**Q.** What about the GI50 (SF-295) of the same molecule?
**A.** > 100 µM (inactive)

**Q.** And the GI50 (OVCAR-5)?
**A.** > 100 µM (inactive)

**Q.** What about the GI50 (OVCAR-8) of the same molecule?
**A.** > 100 µM (inactive)

**Q.** What about the GI50 (A498) of the same molecule?
**A.** > 100 µM (inactive)

**Q.** What about the GI50 (Malme-3M) of the same molecule?
**A.** > 100 µM (inactive)

**Q.** What about the GI50 (HOP-62) of the same molecule?
**A.** > 100 µM (inactive)

**Q.** What about the GI50 (NCI-H522) of the same molecule?
**A.** > 100 µM (inactive)

**Q.** And the GI50 (NCI-H23)?
**A.** > 100 µM (inactive)

**Q.** What about the GI50 (HT-29) of the same molecule?
**A.** > 100 µM (inactive)

**Q.** And the GI50 (SNB-78)?
**A.** > 100 µM (inactive)

**Q.** And the GI50 (LXFL 529)?
**A.** > 100 µM (inactive)

**Q.** What about the GI50 (RXF 631) of the same molecule?
**A.** > 100 µM (inactive)

**Q.** And the GI50 (HCT-15)?
**A.** > 100 µM

**Q.** What about the GI50 (XF498) of the same molecule?
**A.** > 100 µM (inactive)

**Q.** And the GI50 (DLD-1)?
**A.** > 100 µM (inactive)

**Q.** What about the GI50 (ACHN) of the same molecule?
**A.** > 100 µM (inactive)

**Q.** And the GI50 (SF-539)?
**A.** > 100 µM (inactive)

**Q.** What about the GI50 (SK-MEL-28) of the same molecule?
**A.** > 100 µM (inactive)

**Q.** And the GI50 (UO-31)?
**A.** > 100 µM (inactive)

**Q.** And the GI50 (NCI-H226)?
**A.** > 100 µM (inactive)

**Q.** What about the GI50 (RPMI-8226) of the same molecule?
**A.** > 100 µM (inactive)

**Q.** And the GI50 (UACC-257)?
**A.** > 100 µM (inactive)
